Test results reported in patent US20240246992A1, “MACROCYCLIC LRRK2 KINASE INHIBITORS” (LES LABORATOIRES SERVIER, priority 2021, published 2024).

Biological target: human recombinant LRRK2 protein (Homo sapiens, UniProt Q5S007)
Test: LRRK2 kinase activity assay (ADP-Glo, LRRKtide peptide)
Type: biochemical
Details: human recombinant LRRK2 wt, LRRKtide peptide and ATP, 1 h at 37° C.
In short: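 Human recombinant LRRK2 reacted with LRRKtide peptide and ATP for 1 h at 37 °C in the presence of compound. ADP formed measured by ADP-Glo luminescence; IC50 fitted from 10 concentrations run in duplicate.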

human recombinant LRRK2 protein, sequence (Q5S007 whole entry): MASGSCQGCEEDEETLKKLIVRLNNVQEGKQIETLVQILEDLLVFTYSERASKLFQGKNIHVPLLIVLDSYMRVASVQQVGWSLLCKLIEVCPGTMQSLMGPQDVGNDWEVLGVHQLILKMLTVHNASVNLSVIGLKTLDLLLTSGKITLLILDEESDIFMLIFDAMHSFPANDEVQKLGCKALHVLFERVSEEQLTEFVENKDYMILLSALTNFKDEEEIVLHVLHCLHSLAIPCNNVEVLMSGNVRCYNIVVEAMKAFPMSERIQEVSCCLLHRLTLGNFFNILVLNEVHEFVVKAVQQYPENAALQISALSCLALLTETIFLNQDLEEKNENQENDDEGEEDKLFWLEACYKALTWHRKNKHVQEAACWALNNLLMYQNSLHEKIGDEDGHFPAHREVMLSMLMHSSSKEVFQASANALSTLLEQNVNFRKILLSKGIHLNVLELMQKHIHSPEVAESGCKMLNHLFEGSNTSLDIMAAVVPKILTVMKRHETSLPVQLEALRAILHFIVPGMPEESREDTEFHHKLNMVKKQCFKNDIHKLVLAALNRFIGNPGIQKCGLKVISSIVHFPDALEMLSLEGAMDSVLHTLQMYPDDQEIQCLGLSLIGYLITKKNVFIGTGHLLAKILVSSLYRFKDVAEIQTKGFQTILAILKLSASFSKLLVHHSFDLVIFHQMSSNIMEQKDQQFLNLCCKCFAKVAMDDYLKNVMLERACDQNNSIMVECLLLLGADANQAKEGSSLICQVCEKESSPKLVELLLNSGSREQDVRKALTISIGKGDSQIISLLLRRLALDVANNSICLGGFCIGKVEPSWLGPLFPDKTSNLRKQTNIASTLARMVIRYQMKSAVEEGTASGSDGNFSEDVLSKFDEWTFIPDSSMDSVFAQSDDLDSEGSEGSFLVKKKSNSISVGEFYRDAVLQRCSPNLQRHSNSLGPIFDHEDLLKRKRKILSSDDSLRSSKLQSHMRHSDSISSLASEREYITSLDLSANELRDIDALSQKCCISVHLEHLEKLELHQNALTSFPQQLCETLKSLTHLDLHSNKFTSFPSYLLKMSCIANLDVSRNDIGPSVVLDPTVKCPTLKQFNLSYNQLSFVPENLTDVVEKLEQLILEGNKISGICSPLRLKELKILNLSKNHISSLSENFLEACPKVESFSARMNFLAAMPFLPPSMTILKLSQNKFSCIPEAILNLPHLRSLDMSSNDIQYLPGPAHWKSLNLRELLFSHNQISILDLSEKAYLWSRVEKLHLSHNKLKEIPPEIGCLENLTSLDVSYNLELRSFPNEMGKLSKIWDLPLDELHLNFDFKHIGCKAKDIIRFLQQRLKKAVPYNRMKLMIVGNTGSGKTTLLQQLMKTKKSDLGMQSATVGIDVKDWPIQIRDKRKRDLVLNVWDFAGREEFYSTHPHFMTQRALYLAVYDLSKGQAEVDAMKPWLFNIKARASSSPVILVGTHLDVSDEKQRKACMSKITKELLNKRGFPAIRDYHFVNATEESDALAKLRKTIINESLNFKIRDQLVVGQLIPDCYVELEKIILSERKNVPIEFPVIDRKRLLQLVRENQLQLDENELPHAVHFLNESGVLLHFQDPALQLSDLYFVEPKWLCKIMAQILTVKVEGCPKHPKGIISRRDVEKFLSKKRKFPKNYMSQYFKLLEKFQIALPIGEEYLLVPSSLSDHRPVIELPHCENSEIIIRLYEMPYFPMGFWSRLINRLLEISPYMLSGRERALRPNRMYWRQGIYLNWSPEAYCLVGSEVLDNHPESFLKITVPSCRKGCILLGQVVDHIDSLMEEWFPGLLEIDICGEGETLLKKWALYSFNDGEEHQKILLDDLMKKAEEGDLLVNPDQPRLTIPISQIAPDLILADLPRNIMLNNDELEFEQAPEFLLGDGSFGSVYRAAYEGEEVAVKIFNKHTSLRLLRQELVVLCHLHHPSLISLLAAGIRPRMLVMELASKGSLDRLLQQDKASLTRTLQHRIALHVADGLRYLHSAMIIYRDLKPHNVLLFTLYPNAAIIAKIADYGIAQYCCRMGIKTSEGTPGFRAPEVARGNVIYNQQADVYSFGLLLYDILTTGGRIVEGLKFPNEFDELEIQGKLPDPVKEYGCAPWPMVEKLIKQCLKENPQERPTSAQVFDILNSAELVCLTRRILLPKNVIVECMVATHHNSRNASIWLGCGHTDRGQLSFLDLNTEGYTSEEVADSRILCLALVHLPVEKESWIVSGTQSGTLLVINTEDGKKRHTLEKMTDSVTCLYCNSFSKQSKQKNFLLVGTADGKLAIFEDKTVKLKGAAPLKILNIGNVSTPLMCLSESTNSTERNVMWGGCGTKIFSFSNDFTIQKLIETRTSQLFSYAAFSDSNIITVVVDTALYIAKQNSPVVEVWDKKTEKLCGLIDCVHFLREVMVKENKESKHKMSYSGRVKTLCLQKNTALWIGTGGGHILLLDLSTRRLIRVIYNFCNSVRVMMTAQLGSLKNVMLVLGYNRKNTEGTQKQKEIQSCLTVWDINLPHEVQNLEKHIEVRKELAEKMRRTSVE

Compound	IC50
C[C@@H]1CCN(C)CC[C@H](C)n2ncc(n2)-c2n[nH]c3ccc(cc23)O1 [Example 244, (6S,12R)-6,9,12-trimethyl-13-oxa-4,5,9,18,19,22-hexaazatetracyclo[12.5.2.1^2,5.0^17,20]docosa-1(19),2(22),3,14(21),15,17(20)-hexaene]	< 100 nM
C[C@@H]1CCOCCCn2cc(cn2)-c2n[nH]c3cnc(cc23)O1 [Example 245, (12R)-12-methyl-9,13-dioxa-4,5,15,18,19-pentaaza tetracyclo[12.5.2.1^2,5.0^17,20]docosa-1(19),2(22),3,14(21),15,17(20)-hexaene]	< 10 nM
C[C@H]1COc2cc3c(n[nH]c3cn2)-c2cnn(c2)CCOCCO1 [Example 246]	< 100 nM
